Where “and” joins values, the source holds several entries; their conditions need not be identical. Equal values may be shown once. Entries after “also recorded” stand apart in the source; their conditions may differ.

The test system of data set [1] is ePNPO quadruple variant (K72I/Y129F/R133L/H199A). As to conditions: ePNPO quadruple variant with impaired active site; cited from earlier work.
The next data set deals with ePNPO. As to conditions: cited from earlier work.
Data set [2] concerns the target T1, ePNPO R23L/R24L variant (Escherichia coli, UniProt P0AFI7, R23L/R24L). The data set is described as follows: biochemical. The format is biochemical. More on the design: the entire polypeptide chain is made by 218 residues; made in house; host or cells: E. coli MDS00, pET22b(+). From the text: Initial velocity data obtained with all variant forms were fitted to the Michaelis–Menten equation in order to obtain apparent VMAX and KM values as a function of PLP concentration.
Figure 7 Kinetic analysis of PLP inhibition with Arg-cage variants. […] Initial velocity measurements shown in the left panels are the average ± standard deviation of three independent measurements. Saturation curves were fitted to the Michaelis–Menten equation, obtaining apparent VMAX and KM values as a function of PLP concentration. These are represented as 1/VMAX (blue symbols) and KM/VMAX (red symbols) in the right panels, in order to facilitate the interpretation of the PLP inhibition mechanism from the shape of graphs, which correspond to the classic secondary plots of the Y-intercept and slope derived from Lineweaver–Burk plots. As detailed in the Experimental Procedures section, initial velocity data and 1/VMAX and KM/VMAX values of each data set were globally fitted to Equations (3), (4), (5), obtaining the continuous lines shown in the graphs and the parameter values shown in Table 3.
In order to analyze the above-mentioned kinetic data, a general inhibition model was considered (Fig. 8A), in which PLP binds at both the active and allosteric sites. […] Therefore, the dissociation constant of the substrate binding equilibrium may be assumed to correspond to the Michaelis–Menten constant (KM) derived from steady-state kinetic measurements. Equations describing the dependence of initial velocity, 1/VMAX, and KM/VMAX on substrate and PLP concentration were derived on the basis of these assumptions (Equations (3), (4), (5)). Using these equations, initial velocity data as a function of substrate concentration, obtained at all different fixed PLP concentrations, were globally fit together with the previously obtained values of apparent 1/VMAX and KM/VMAX as a function of PLP concentration.
Inhibition kinetics were measured in 50 mM Na-Hepes pH 7.6. […] All saturation curves obtained by varying PNP at a fixed PLP concentration were independently analyzed using the Michaelis–Menten equation, obtaining apparent VMAX and apparent KM values, which were then used to calculate 1/appVMAX and appKM/appVMAX as a function of PLP concentration.

Data set [3] has as its target T2, ePNPO R23L variant (Escherichia coli, UniProt P0AFI7, R23L). Briefly: Fluorimetric PLP binding equilibrium.
Data set [4] relates to human pyridoxine 5’-phosphate oxidase. More on the design: method as in PMID 32788630. As to conditions: human PNPO; parabolic inhibition model; cited from earlier work.
The target in data set [5] is T3, ePNPO K145A/F177A variant (Escherichia coli, UniProt P0AFI7, F177A/K145A).
T3 construct: the entire polypeptide chain is made by 218 residues; made in house; host or cells: E. coli MDS00, pET22b(+)
T3 sequence (P0AFI7 whole entry K145A/F177A): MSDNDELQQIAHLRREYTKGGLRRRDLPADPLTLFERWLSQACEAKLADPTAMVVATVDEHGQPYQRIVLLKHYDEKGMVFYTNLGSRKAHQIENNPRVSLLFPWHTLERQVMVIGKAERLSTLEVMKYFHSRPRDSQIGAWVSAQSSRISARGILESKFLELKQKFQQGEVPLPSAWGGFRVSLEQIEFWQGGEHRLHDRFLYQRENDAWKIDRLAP
Briefly: PLP retention after SEC. Format: binding. As to conditions: 100 μM enzyme + equimolar PLP, with respect to protein subunits. As to the method: (§1) It is known by previous experiments on wildtype ePNPO that, when the protein is incubated with PLP and then passed through an SEC column, it retains PLP tightly bound to it ([7]). […] All ePNPO variants (100 μM) were incubated with an equimolar amount of PLP. Then, they were passed through an SEC column and the stoichiometry of protein-bound PLP with respect to protein subunits was determined. The percentage of protein-bound PLP was 72 ± 8, 73 ± 10, and 73 ± 19, with the K145A/F177A, N84A/K145A/F177A and N84W/K145A/F177A ePNPO variants, respectively (Table 1).

The target in data set [6] is T4, wildtype ePNPO (Escherichia coli, UniProt P0AFI7).
T4 construct: the entire polypeptide chain is made by 218 residues; made in house; host or cells: E. coli MDS00, pET22b(+)
T4 sequence (P0AFI7 whole entry): as the sequence (P0AFI7 whole entry K145A/F177A) above, with A145K, A177F counted along it
Briefly: PLP retention after SEC. Format: binding. As to conditions: 100 μM enzyme + equimolar PLP, with respect to protein subunits. On the procedure:
as §1

Data set [7] addresses T5, ePNPO N84A/K145A/F177A variant (Escherichia coli, UniProt P0AFI7, F177A/K145A/N84A).
T5 construct: the entire polypeptide chain is made by 218 residues; made in house; host or cells: E. coli MDS00, pET22b(+)
Briefly: PLP retention after SEC. The format is binding. The following applies: 100 μM enzyme + equimolar PLP, with respect to protein subunits. As to the method: as §1

Data set [8] concerns the target T6, ePNPO N84W/K145A/F177A variant (Escherichia coli, UniProt P0AFI7, F177A/K145A/N84W).
T6 construct: the entire polypeptide chain is made by 218 residues; made in house; host or cells: E. coli MDS00, pET22b(+)
The data set is described as follows: PLP retention after SEC. Format: binding. As to conditions: 100 μM enzyme + equimolar PLP, with respect to protein subunits. On the procedure:
as §1

Data set [9] concerns the target T3, ePNPO K145A/F177A variant. Briefly: Fluorimetric PLP binding equilibrium. As to the method:
(§2) Binding of PLP to ePNPO variants was also analyzed using the spectrofluorometric method previously employed for the wildtype enzyme ([5]), which is based on the resulting increase of FMN fluorescence emission.

Data set [10] concerns the target T5, ePNPO N84A/K145A/F177A variant. The data set is described as follows: Fluorimetric PLP binding equilibrium. On the procedure: as §2
Data set [11] addresses T6, ePNPO N84W/K145A/F177A variant. The data set is described as follows: Fluorimetric PLP binding equilibrium. As to the method: as §2
Data set [12] has as its target T2, ePNPO R23L variant. The data set is described as follows: PLP retention after SEC. As to conditions: 100 μM enzyme + equimolar PLP, with respect to protein subunits.
In data set [13] the target is T1, ePNPO R23L/R24L variant. Briefly: Fluorimetric PLP binding equilibrium.
The target of data set [14] is T4, wildtype ePNPO. The following applies: cited from earlier work.
For the next data set, the target named is R23L/R24L ePNPO (Escherichia coli, UniProt P0AFI7, R23L/R24L). The data set is described as follows: PLP binding stoichiometry, fluorimetric titration. The following applies: titration of 2, 4 and 8 μM ePNPO with PLP.
Sequence of R23L/R24L ePNPO (P0AFI7 whole entry R23L/R24L): as the sequence (P0AFI7 whole entry K145A/F177A) above, with R23L, R24L, A145K, A177F counted along it
The target of data set [15] is T1, ePNPO R23L/R24L variant. Briefly: PLP retention after SEC. The following applies: 100 μM enzyme + equimolar PLP, with respect to protein subunits.
The target of data set [16] is T4, wildtype ePNPO. As to conditions: read-out: KD^PLP, fluorimetric PLP binding equilibrium; cited from earlier work.
Data set [17] concerns the target T4, wildtype ePNPO. The following applies: in solution; cited from earlier work.
Data set [18] concerns the molecule itself. The data set is described as follows: crystal structure; ePNPOqm without PLP, space group P3(1) 2 1, 1.56 Å; one subunit in the asymmetric unit, dimer generated by the crystallographic 2-fold axis; hanging drop, (NH4)2SO4, 298 K.

T1 sequence (P0AFI7 whole entry R23L/R24L): as the sequence (P0AFI7 whole entry K145A/F177A) above, with R23L, R24L, A145K, A177F counted along it
T6 sequence (P0AFI7 whole entry N84W/K145A/F177A): as the sequence (P0AFI7 whole entry K145A/F177A) above, with N84W counted along it
T2 sequence (P0AFI7 whole entry R23L): as the sequence (P0AFI7 whole entry K145A/F177A) above, with R23L, A145K, A177F counted along it
T5 sequence (P0AFI7 whole entry N84A/K145A/F177A): as the sequence (P0AFI7 whole entry K145A/F177A) above, with N84A counted along it

On to `Cc1ncc(COP(=O)(O)O)c(C=O)c1O` [PLP, Pyridoxal 5’-phosphate], for which the “stoichiometry of PLP binding” value in data set [1] is reported as “two PLP molecules per dimer”. Also, in the data set on ePNPO, the “kOFF of PLP binding” value was 3.2 s⁻¹. Besides, the “kON of PLP binding” value in the data set on ePNPO is 1.13e+07 M⁻¹ s⁻¹. Also, the “α (allosteric coupling coefficient)” value at ePNPO R23L/R24L variant [2] is given as 6.6. Further, the “γ factor (PLP active site / allosteric site coupling)” value on ePNPO R23L/R24L variant [2] amounted to 0.31. For the same molecule, the “type of PLP inhibition” value on ePNPO R23L/R24L variant [2] (Hepes buffer) was “parabolic inhibition”; on wildtype ePNPO [14] (wildtype ePNPO) it was “linear mixed-type inhibition”. For the same molecule, the Ki (commonly the equilibrium dissociation constant of an inhibitor or competing ligand from its target) at ePNPO R23L/R24L variant [2] (KI (PLP binding at the allosteric site), global fit (Fig. 8A model)) was 820 ± 20 nM; on ePNPO R23L/R24L variant [2] (KX (PLP binding at the active site), global fit (Fig. 8A model)), 6580 ± 620 nM; at ePNPO R23L/R24L variant [2] (γKX (PLP binding at active site of PE complex), global fit (Fig. 8A model)), 2050 ± 60 nM; at wildtype ePNPO [14] (read-out: KI (PLP binding at the allosteric site), WT, determined according to Figure 2A model), 590 ± 700 nM. Also, the “αKI (PLP binding at allosteric site of ES complex)” value at ePNPO R23L/R24L variant [2] (global fit (Fig. 8A model)) was 5.39 ± 1.14 µM; on wildtype ePNPO [14] (WT, determined according to Figure 2A model), 7.13 ± 0.52 µM. In addition, the “β (coefficient reducing kCAT of PES complex)” value on ePNPO R23L/R24L variant [2] (global fit (Fig. 8A model)) was 0.42 and 0.42 ± 0.05. For the same molecule, the Kd – broadly, a measure of binding affinity in units of concentration – was 580 ± 120 nM on ePNPO R23L variant [3]; 470 ± 60 nM in data set [9]; 360 ± 50 nM in [10]; 330 ± 70 nM in [11]; 1000 ± 90 nM on ePNPO R23L/R24L variant [13]; 150 nM on wildtype ePNPO [16]. Further, the “α value (allosteric coupling)” value in [4] is reported as “about 3”. In [4], the “β coefficient (reduction of kCAT of PES complex)” value is 0.15. Further, the “PLP (%) protein-bound PLP retained after SEC” value in data set [5] is 72 ± 8%; at wildtype ePNPO [6] it was 70% and 69 ± 19%; in [7], 73 ± 10%; in data set [8], 73 ± 19%; on ePNPO R23L variant [12] it was 38 ± 11%; on ePNPO R23L/R24L variant [15], 30 ± 8%. Further, the PLP binding stoichiometry result at R23L/R24L ePNPO is on record as “two molecules of PLP per protein subunit; also recorded: four PLP molecules per enzyme dimer”. The “stoichiometry of PLP binding to the allosteric site” value on wildtype ePNPO [17] is on record as “one PLP molecule per protein dimer”.

B1: Escherichia coli pyridoxine 5'-phosphate oxidase quadruple variant K72I/Y129F/R133L/H199A (enzyme, UniProt P0AFI7 1-218, looked up)
chain: MSDNDELQQIAHLRREYTKGGLRRRDLPADPLTLFERWLSQACEAKLADPTAMVVATVDEHGQPYQRIVLLIHYDEKGMVFYTNLGSRKAHQIENNPRVSLLFPWHTLERQVMVIGKAERLSTLEVMKFFHSLPRDSQIGAWVSKQSSRISARGILESKFLELKQKFQQGEVPLPSFWGGFRVSLEQIEFWQGGEHRLADRFLYQRENDAWKIDRLAP
notes: pyridoxine 5'-phosphate oxidase (PNPO, EC 1.4.3.5) of Escherichia coli, encoded by pdxH; the entire polypeptide chain is made by 218 residues; active site impaired by four substitutions; Gene cloned in pET22b(+) between NdeI and NcoI; no tag is mentioned; Modelled residues: 7-218 in 6YLZ; 17-126 and 176-218 (chain A), 14-166 and 170-218 (chain B) in 6YMH; also called ePNPOqm; source: E. coli …
As for B1, the stoichiometry N (as a rule, the number of molecules, sites or subunits per partner or assembly) in [18] was 2.

These data come from paper PMC8215295, “Identification and characterization of the pyridoxal 5’-phosphate allosteric site in Escherichia coli pyridoxine 5’-phosphate oxidase” (The Journal of Biological Chemistry, 2021).
